From patent US20190234956A1 (priority 2016, published 2019)

Experiments:
human sGC = biological target: T1, human sGC (Homo sapiens, UniProt Q02153); experiment: cGMP measurement, catalytic activity of human sGC in transfected HEK293T lysate; format: biochemical; conditions: stimulator 5 μM
T1 construct: Hs SGC-β1 (β1 1-619-His6); expressed in transfected cells; host or cells: HEK293T
T1 sequence (Q02153 1-619): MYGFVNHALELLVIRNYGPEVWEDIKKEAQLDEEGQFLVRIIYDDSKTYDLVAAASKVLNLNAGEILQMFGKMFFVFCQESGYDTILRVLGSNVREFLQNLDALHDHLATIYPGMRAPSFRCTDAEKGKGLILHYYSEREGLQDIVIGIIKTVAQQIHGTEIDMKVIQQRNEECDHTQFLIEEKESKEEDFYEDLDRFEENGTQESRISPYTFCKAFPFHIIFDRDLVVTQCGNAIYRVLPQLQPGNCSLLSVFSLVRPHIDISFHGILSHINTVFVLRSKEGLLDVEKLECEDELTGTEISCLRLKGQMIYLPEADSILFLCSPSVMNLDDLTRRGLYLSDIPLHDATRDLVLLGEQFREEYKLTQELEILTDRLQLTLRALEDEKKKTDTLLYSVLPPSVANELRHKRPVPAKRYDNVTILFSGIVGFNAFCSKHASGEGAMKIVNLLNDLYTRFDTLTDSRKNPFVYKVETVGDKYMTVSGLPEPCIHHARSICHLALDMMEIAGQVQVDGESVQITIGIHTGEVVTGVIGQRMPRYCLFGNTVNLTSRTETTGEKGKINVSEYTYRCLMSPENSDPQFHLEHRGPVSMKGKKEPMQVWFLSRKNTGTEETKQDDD
T1 sequence (Q02108 1-690 partner): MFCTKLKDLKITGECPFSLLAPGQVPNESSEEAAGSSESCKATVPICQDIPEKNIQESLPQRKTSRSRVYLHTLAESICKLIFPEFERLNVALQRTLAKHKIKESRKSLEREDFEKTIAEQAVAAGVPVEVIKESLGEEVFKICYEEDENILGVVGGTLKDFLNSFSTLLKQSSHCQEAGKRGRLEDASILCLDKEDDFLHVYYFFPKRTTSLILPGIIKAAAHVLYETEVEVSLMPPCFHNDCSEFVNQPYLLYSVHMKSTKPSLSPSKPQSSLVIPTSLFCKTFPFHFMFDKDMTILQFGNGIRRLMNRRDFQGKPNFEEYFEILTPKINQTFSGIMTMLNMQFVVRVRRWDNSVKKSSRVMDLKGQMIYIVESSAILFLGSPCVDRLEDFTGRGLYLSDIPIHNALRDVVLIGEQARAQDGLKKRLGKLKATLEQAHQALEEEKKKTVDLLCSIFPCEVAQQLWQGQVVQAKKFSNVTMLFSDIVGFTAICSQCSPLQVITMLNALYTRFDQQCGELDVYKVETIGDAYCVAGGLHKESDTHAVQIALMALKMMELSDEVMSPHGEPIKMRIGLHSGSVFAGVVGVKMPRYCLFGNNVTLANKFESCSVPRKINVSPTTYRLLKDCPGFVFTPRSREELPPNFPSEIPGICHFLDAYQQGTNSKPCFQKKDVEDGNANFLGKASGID

[1] = tested on: bacterial H-NOX proteins (Cb SONO, Ns H-NOX, So H-NOX, Sw H-NOX); format: binding
full-length Hs sGC = biological target: T2, full-length Hs sGC (Homo sapiens, UniProt Q02153); experiment: Photoaffinity labeling with IWP-854, western blot, full-length Hs sGC; format: binding; conditions: IWP-854 1 μM; not competed away with excess stimulator
T2 construct: Full-length human sGC was purchased from Enzo Life Sciences, Inc; purchased Enzo Life Sciences, Inc
T2 sequence (Q02153 1-619): T1 sequence (Q02153 1-619)
T2 sequence (Q02108 1-690 partner): T1 sequence (Q02108 1-690 partner)

Ms sGC-β1 = experiment: Photoaffinity labeling with IWP-854, western blot, Ms sGC-β1; format: binding, Manduca sexta
Ms sGC-NT23 [2] = experiment: Photoaffinity labeling with IWP-854, western blot, Ms sGC-NT23; format: binding, Manduca sexta
Ms sGC-NT23 [3] = experiment: Determination of CO dissociation constants, Ms sGC-NT23; format: binding, Manduca sexta; conditions: stimulator 5 μM, versus no stimulator
[4] = background statement; cited from earlier work
[5] = tested on: bacterial H-NOX proteins (Cb SONO, Ns H-NOX, So H-NOX, Sw H-NOX); format: binding; remark: listed apart in the source
Compound solubility = format: physicochemical

Row | Compound | increase of sGC activity over basal levels (human sGC; absence of added NO) [fold] | stimulation of recombinant human sGC, compared with BAY 41-2272 (human sGC; basal and NO stimulated) | increase of sGC activity over basal (human sGC; upon addition of NO (DEA/NO 100 μM)) [fold] | amount of IWP-854 required for photoaffinity labeling relative to sGC constructs [1] [fold] | labeling of bacterial H-NOX proteins [1] | labeling of the α1 subunit (full-length Hs sGC) | labeling of the isolated β1 subunit (Ms sGC-β1; β1 residues 1-380) | subunit cross-linked by IWP-854 (Ms sGC-NT23 [2]; IWP-854 1 μM, 15 min UV, anti-biotin western blot) | enhancement of CO affinity (Ms sGC-NT23 [3]) [fold] | solubility compared with traditional stimulators [4] | enhancement of CO binding [5] | competition of IWP-854 labeling [1] | competition of IWP-854 labeling (Ms sGC-β1; BAY 41-2272 against IWP-854) | compound solubility (Compound solubility) | competition of IWP-854 cross-linking (Ms sGC-NT23 [2]; BAY 41-2272 1-25 μM against IWP-854 1 μM)
1 | CC1(CCCN(CCOCCOCCOCCOCCC(=O)NCCOCCOCCOCCOCCOCCOCCOCCOCCOCCOCCOC(C)(C)CCNC(=O)CCCCC2SC[C@@H]3NC(=O)N[C@H]23)c2nc(-c3cc(-c4ccon4)n(Cc4ccccc4F)n3)ncc2F)N=N1 (stereo partly shown) [IWP-854] | 12 | stimulate to a similar extent as BAY 41-2272 | 84 | 10 | labeled all four bacterial H-NOX proteins | Faint labeling was observed on the α1 subunit | labeled the isolated β1 subunit | cross-links exclusively to the β1 subunit | 34 | – | – | – | – | – | –
2 | O=c1[nH]c(-c2cc(-c3ccon3)n(Cc3ccccc3F)n2)ncc1F [IWP-051] | – | – | – | – | – | – | – | – | – | improved solubility over traditional stimulators | – | – | – | – | –
3 | Nc1nc(-c2nn(Cc3ccccc3F)c3ncccc23)ncc1C1CC1 [BAY 41-2272, reference compound] | – | – | – | – | – | – | – | – | 14 | – | did not enhance CO binding | reduced but not eliminated | failed to diminish IWP-854 labeling | poor compound solubility | attenuated IWP-854 cross-linking to Ms sGC-NT23 in a concentration-dependent manner
